Results on 52 compounds are retold here after article PMC5706701, “Development of a homogenous high-throughput assay for inositol hexakisphosphate kinase 1 activity” (PLoS ONE, 2017).

Structures can show the parent of a compound that is named as a salt.

The test has as its target T1, Human IP6K1 (Homo sapiens, UniProt Q92551).
T1 construct: GST (N, cleaved yes); made in house; host or cells: C43 E. coli, pGEX-6P-2
In words: IP6K1 high-throughput screen of the Sigma LOPAC (ADP-Glo Max, single point).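 Note: final compound concentration 10µM in 5% DMSO.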 It is filed as biochemical. (ADP-Glo turns the ADP formed in a reaction into a luminescent signal.)

[1] abbreviates: Sigma LOPAC single-point screen, ADP-Glo Max raw signal per well.
[2] abbreviates: Sigma LOPAC single-point screen, Z-score from plate average and StDev.
The mark [3] stands for this setting: LOPAC single-point screen, ADP-Glo Max raw signal per well.
Where [4] appears, read: LOPAC single-point screen, Z-score against plate average and StDev.
Where [5] appears, read: LOPAC single-point screen, Z-score from raw signal with plate average and StDev.
Setting [6] is: LOPAC single-point screen, ADP-Glo Max luminescence raw signal per well.
The mark [7] stands for this setting: LOPAC single-point screen, Z-score from plate average and StDev.
Setting [8] is: LOPAC single-point screen, Z-score relative to plate average and StDev.

T1 sequence (Q92551 whole entry): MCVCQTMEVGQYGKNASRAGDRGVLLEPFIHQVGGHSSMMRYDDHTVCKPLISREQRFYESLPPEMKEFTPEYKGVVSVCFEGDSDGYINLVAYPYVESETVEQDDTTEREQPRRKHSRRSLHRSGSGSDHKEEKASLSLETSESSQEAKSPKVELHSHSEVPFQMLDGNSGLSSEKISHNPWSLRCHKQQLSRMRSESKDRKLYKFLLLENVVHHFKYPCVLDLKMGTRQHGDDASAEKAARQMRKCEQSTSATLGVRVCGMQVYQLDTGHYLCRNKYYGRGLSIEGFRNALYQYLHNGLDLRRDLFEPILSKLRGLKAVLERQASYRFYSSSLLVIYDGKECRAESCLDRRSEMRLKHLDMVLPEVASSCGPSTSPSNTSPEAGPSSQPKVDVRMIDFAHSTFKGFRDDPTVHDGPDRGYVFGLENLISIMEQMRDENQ

Take `N[C@@H](Cc1ccc(N(CCCl)CCCl)cc1)C(=O)O` [Melphalan]: the “Raw Signal” value under setting [1] was 56974. Also, the Z-score under setting [2] came out at 0.4336.

As for `CC12CC3CC(C)(C1)CC(N)(C3)C2` [Memantine hydrochloride], under setting [3], the “Raw Signal” value is 56169. The Z-score under setting [4] is 0.2983.

Turning to `CN1C[C@@H](NS(=O)(=O)N(C)C)C[C@@H]2c3cccc4c3c(cn4C)C[C@H]21` [Mesulergine hydrochloride], the “Raw Signal” value under setting [3] worked out at 53840. The compound further yielded a Z-score under setting [5] of -0.093.

Take `S=C=Nc1cccc(C2(N3CCCCC3)CCCCC2)c1` [Metaphit methanesulfonate]: the “Raw Signal” value under setting [1] is listed as 56894. The compound also gave a Z-score under setting [2] of 0.4201.

`CC(C)NCC(O)c1cc(O)cc(O)c1.CC(C)NCC(O)c1cc(O)cc(O)c1.O=S(=O)(O)O` (centres unmarked) [Metaproterenol hemisulfate]: the “Raw Signal” value under setting [3] is 55094. Also, the Z-score under setting [4] was 0.1177.

In the case of `CN1C[C@H](CNC(=O)OCc2ccccc2)C[C@@H]2c3cccc4c3c(cn4C)C[C@H]21` [Metergoline], the “Raw Signal” value under setting [6] is recorded as 65696. Moreover, the Z-score under setting [7] is recorded as 1.899.

Consider `CSc1ccc2c(c1)C(N1CCN(C)CC1)Cc1ccccc1S2` (centres unmarked) [Methiothepin mesylate], for which the “Raw Signal” value under setting [1] turned out to be 58558. The Z-score under setting [2] is given as 0.6997.

Regarding `COc1ccccc1CNCCCCCCNCCCCCCCCNCCCCCCNCc1ccccc1OC.Cl.Cl.Cl.Cl` [Methoctramine tetrahydrochloride], the “Raw Signal” value under setting [1] is listed as 56889. This compound also returned a Z-score under setting [2] of 0.4193.

On to `CN(Cc1cnc2nc(N)nc(N)c2n1)c1ccc(C(=O)N[C@@H](CCC(=O)O)C(=O)O)cc1` [Methotrexate], for which the “Raw Signal” value under setting [1] came to 60039. In addition, the Z-score under setting [2] is 0.3744.

On to `COc1ccc(OC)c(C(O)C(C)N)c1` (centres unmarked) [Methoxamine hydrochloride], for which the “Raw Signal” value under setting [1] is given as 57572. This compound also displayed a Z-score under setting [2] of 0.5341.

Consider `COC(=O)c1cc2c(cn1)[nH]c1ccccc12` [Methyl beta-carboline-3-carboxylate], for which the “Raw Signal” value under setting [3] is on record as 53830. For the same compound, under setting [5], the Z-score is on record as -0.2715.

As for `CNC(=O)OCC[N+](C)(C)C` [Methylcarbamylcholine chloride], the “Raw Signal” value under setting [1] is reported as 60360. In addition, under setting [2], the Z-score stood at 1.003.

With `CC[C@@H](CO)NC(=O)[C@@H]1C=C2c3cccc4[nH]cc(c34)C[C@H]2N(C)C1` [Methylergonovine maleate], the “Raw Signal” value under setting [1] is reported as 56663. Under setting [2], the Z-score was 0.3813.

Turning to `CC[C@@H](CO)NC(=O)[C@@H]1C=C2c3cccc4c3c(cn4C)C[C@H]2N(C)C1` [Methysergide maleate], the “Raw Signal” value under setting [3] is listed as 55881. Under setting [4], this compound gave a Z-score of 0.2499.

Regarding `CCN(CC)CCNC(=O)c1cc(Cl)c(N)cc1OC.Cl` [Metoclopramide hydrochloride], under setting [3], the “Raw Signal” value is recorded as 53948. The Z-score under setting [4] was -0.07486.

Turning to `Cc1ccccc1N1C(=O)c2cc(S(N)(=O)=O)c(Cl)cc2NC1C` (centres unmarked) [Metolazone], the “Raw Signal” value under setting [3] came out at 54501. This compound also yielded a Z-score under setting [4] of 0.01806.

In the case of `Cc1ccccc1/C=C/C1=NCCN1` [Metrazoline oxalate], the “Raw Signal” value under setting [6] is 51543. The same compound yielded a Z-score under setting [8] of -0.479.

Regarding `Cc1ccccc1CNc1ncnc2c1ncn2[C@@H]1O[C@H](CO)[C@@H](O)[C@H]1O` [Metrifudil], the “Raw Signal” value under setting [3] was 54359. Moreover, under setting [4], the Z-score was -0.005798.

For the compound `CC[C@H](C)C(=O)O[C@H]1CCC=C2C=C[C@H](C)[C@H](CC[C@@H]3C[C@@H](O)CC(=O)O3)[C@H]21` [Mevastatin], the “Raw Signal” value under setting [6] was 50064. For the same compound, the Z-score under setting [8] is given as -0.7275.

As to `Cc1cccc(C)c1OCC(C)N.Cl` (centres unmarked) [Mexiletene hydrochloride], the “Raw Signal” value under setting [6] is listed as 50431. In addition, under setting [8], the Z-score is given as -0.6658.

For `CN1CCN2c3ccccc3Cc3ccccc3C2C1` (centres unmarked) [Mianserin hydrochloride], the “Raw Signal” value under setting [6] was found to be 51451. Under setting [8], this compound registered a Z-score of -0.4944.

Regarding `COCC(=O)O[C@]1(CCN(C)CCCc2nc3ccccc3[nH]2)CCc2cc(F)ccc2[C@@H]1C(C)C` [Mibefradil dihydrochloride], under setting [6], the “Raw Signal” value was found to be 48952. For the same compound, the Z-score under setting [8] was -0.9143.

Take `CC#C[C@]1(O)CC[C@H]2[C@@H]3CCC4=CC(=O)CCC4=C3[C@@H](c3ccc(N(C)C)cc3)C[C@@]21C` [Mifepristone]: the “Raw Signal” value under setting [1] worked out at 60991. Under setting [2], this compound had a Z-score of 1.109.

Turning to `Cc1[nH]c(=O)c(C#N)cc1-c1ccncc1` [Milrinone], the “Raw Signal” value under setting [3] was found to be 53863. Moreover, the Z-score under setting [4] is given as -0.08914.

As to `CN(C)c1ccc(O)c2c1C[C@H]1C[C@H]3[C@H](N(C)C)C(O)=C(C(N)=O)C(=O)[C@@]3(O)C(O)=C1C2=O` [Minocycline hydrochloride], under setting [3], the “Raw Signal” value is 55658. Further, the Z-score under setting [4] turned out to be 0.2125.

Turning to `Nc1cc(N2CCCCC2)nc(N)[n+]1[O-]` [Minoxidil], the “Raw Signal” value under setting [3] worked out at 52091. The compound also registered a Z-score under setting [5] of -0.3869.

As for `O=C1c2c(O)ccc(O)c2C(=O)c2c(NCCNCCO)ccc(NCCNCCO)c21` [Mitoxantrone], under setting [6], the “Raw Signal” value was found to be 48302. For the same compound, the Z-score under setting [8] is listed as -1.024.

As for `NC(=O)c1ncn([C@@H]2O[C@H](CO)[C@@H](O)[C@H]2O)c1O` [Mizoribine], the “Raw Signal” value under setting [6] amounted to 51474. Under setting [8], this compound yielded a Z-score of -0.4906.

As to `CCOC(=O)[N-]c1cn(N2CCOCC2)n[o+]1` [Molsidomine], the “Raw Signal” value under setting [1] came out at 60839. Also, the Z-score under setting [2] worked out at 1.083.

Regarding `CCOC(=O)C1=C(C)NC(=S)NC1c1cccc(O)c1` (centres unmarked) [Monastrol], the “Raw Signal” value under setting [3] stood at 54262. In addition, the Z-score under setting [4] is -0.0221.

As to `O=c1c(O)c(-c2ccc(O)cc2O)oc2cc(O)cc(O)c12` [Morin], under setting [6], the “Raw Signal” value is recorded as 34376. Under setting [8], the Z-score is -3.363.

As to `CC(=O)Oc1cc(C(C)C)c(OCCN(C)C)cc1C` [Moxisylyte hydrochloride], the “Raw Signal” value under setting [3] is reported as 54969. Under setting [4], this compound showed a Z-score of 0.0967.

As to `COc1nc(C)nc(Cl)c1NC1=NCCN1.Cl` [Moxonidine hydrochloride], the “Raw Signal” value under setting [3] was determined as 52362. This compound also displayed a Z-score under setting [5] of -0.3413.

Regarding `Br.NCc1cc(O)no1` [Muscimol hydrobromide], the “Raw Signal” value under setting [3] is 54732. Under setting [4], the Z-score is -0.08835.

Regarding `Nc1ccc(CCNc2ncnc3c2ncn3[C@@H]2O[C@H](CO)[C@@H](O)[C@H]2O)cc1` [N6-2-(4-Aminophenyl)ethyladenosine], under setting [6], the “Raw Signal” value is reported as 51199. For the same compound, the Z-score under setting [8] is listed as -1.183.

For `OC[C@H]1O[C@@H](n2cnc3c(NCCc4ccccc4)ncnc32)[C@H](O)[C@@H]1O` [N6-2-Phenylethyladenosine], the “Raw Signal” value under setting [6] was determined as 52095. The Z-score under setting [8] is -0.7633.

Regarding `CCNC(=O)[C@H]1O[C@@H](n2cnc3c(NCc4ccccc4)ncnc32)[C@H](O)[C@@H]1O` [N6-Benzyl-5 -N-ethylcarboxamidoadenosine], the “Raw Signal” value under setting [3] came out at 59001. Under setting [4], this compound displayed a Z-score of 0.1916.

Take `OC[C@H]1O[C@@H](n2cnc3c(NC4CCCCC4)ncnc32)[C@H](O)[C@@H]1O` [N6-Cyclohexyladenosine]: the “Raw Signal” value under setting [1] turned out to be 60438. Moreover, under setting [2], the Z-score worked out at 1.07.

With `Cn1cnc2c(NC3CCCC3)ncnc21` [N6-Cyclopentyl-9-methyladenine], under setting [3], the “Raw Signal” value amounted to 52967. For the same compound, the Z-score under setting [5] is listed as -0.2397.

As to `OC[C@H]1O[C@@H](n2cnc3c(NC4CCCC4)ncnc32)[C@H](O)[C@@H]1O` [N6-Cyclopentyladenosine], under setting [3], the “Raw Signal” value is recorded as 55487. In addition, the Z-score under setting [5] was -0.4273.

Consider `CNc1ncnc2c1ncn2[C@@H]1O[C@H](CO)[C@@H](O)[C@H]1O` [N6-Methyladenosine], for which, under setting [6], the “Raw Signal” value amounted to 48943. Moreover, the Z-score under setting [8] is on record as -0.9158.

For `OC[C@H]1O[C@@H](n2cnc3c(Nc4ccccc4)ncnc32)[C@H](O)[C@@H]1O` [N6-Phenyladenosine], the “Raw Signal” value under setting [3] turned out to be 55025. Under setting [5], this compound registered a Z-score of -0.194.

Take `CN(C)C(=O)N=NC(=O)N(C)C` [N,N,N ,N -Tetramethylazodicarboxamide]: under setting [1], the “Raw Signal” value stood at 57249. Under setting [2], this compound returned a Z-score of 0.4228.

Regarding `NCC(=O)NCCC(c1ccccc1)c1ccccc1` [N-(3,3-Diphenylpropyl)glycinamide], under setting [6], the “Raw Signal” value is 66051. This compound gave a Z-score under setting [7] of 2.21.

`Nc1ccc(N2C(=O)c3ccccc3C2=O)c(Cl)c1` [N-(4-Amino-2-chlorophenyl)phthalimide]: under setting [1], the “Raw Signal” value is reported as 61206. The compound further showed a Z-score under setting [2] of 0.58.

Take `CC(=O)NCCc1c[nH]c2ccc(O)cc12` [N-Acetyl-5-hydroxytryptamine]: the “Raw Signal” value under setting [6] worked out at 55051. Under setting [8], this compound yielded a Z-score of -0.5041.

As to `CC(=O)N[C@@H](CS)C(=O)O` [N-Acetyl-L-Cysteine], under setting [1], the “Raw Signal” value was 65323. Also, the Z-score under setting [2] stood at 1.305.

Regarding `CC(=O)NCCc1ccc(O)c(O)c1.O` [N-Acetyldopamine monohydrate], under setting [1], the “Raw Signal” value is given as 60782. Further, the Z-score under setting [2] is reported as 0.5053.

For the compound `CCN(CC)CCNC(=O)c1ccc(NC(C)=O)cc1.Cl` [N-Acetylprocainamide hydrochloride], under setting [6], the “Raw Signal” value was determined as 70393. The compound further showed a Z-score under setting [7] of 2.198.

As for `CC(=O)NCCc1c[nH]c2ccccc12` [N-Acetyltryptamine], the “Raw Signal” value under setting [6] is reported as 53398. The compound also returned a Z-score under setting [8] of -0.7952.

As to `CC(=O)NBr` [N-Bromoacetamide], the “Raw Signal” value under setting [1] is 65186. Under setting [2], this compound yielded a Z-score of 1.281.

With `CCN1C(=O)C=CC1=O` [N-Ethylmaleimide], the “Raw Signal” value under setting [3] was 55064. This compound registered a Z-score under setting [4] of -0.02093.
